Where “and” joins values, the source holds several entries; their conditions need not be identical. Identical values can stand only once.
How the values were obtained:
Type in all cases: cell-based, Murine
[1] = molecular target: T1, IKKε (Mus musculus, UniProt Q9R0T8); experiment: IKKε-knockdown 3T3-L1 adipocytes (siRNA; western blotting, cAMP, glycerol, ISO); design: endogenous in cells; host or cells: differentiated 3T3-L1 adipocytes; conditions: ISO +, 10μM BJ -
T1 sequence (Q9R0T8 1-717): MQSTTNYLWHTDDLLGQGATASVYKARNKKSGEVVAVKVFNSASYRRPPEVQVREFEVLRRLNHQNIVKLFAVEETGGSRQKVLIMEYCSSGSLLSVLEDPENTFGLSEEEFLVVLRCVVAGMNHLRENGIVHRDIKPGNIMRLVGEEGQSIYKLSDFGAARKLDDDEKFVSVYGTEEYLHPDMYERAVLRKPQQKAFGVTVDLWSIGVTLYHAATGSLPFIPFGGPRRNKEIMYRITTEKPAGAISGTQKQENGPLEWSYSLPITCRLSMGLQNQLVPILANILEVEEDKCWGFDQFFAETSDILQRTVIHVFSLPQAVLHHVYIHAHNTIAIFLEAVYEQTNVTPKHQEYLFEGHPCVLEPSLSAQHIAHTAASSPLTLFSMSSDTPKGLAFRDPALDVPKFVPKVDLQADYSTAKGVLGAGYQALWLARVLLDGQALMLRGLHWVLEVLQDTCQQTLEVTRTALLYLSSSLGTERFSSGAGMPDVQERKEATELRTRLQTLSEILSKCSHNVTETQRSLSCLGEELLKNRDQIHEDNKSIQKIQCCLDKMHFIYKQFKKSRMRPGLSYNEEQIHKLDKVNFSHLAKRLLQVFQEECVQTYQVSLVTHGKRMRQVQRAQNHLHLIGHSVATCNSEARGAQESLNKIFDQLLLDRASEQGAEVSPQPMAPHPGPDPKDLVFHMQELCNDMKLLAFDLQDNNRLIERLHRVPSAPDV
Protocol: (§1) Small interference RNA transfection (siRNA) was performed using 4 μM TBK1 siRNA (siTBK1) or 4 μM […]ε) or corresponding NC siRNA (siNC). The epididymal adipose tissue was dissected, the fresh adipose tissue was weighed and rapidly rinsed with PBS. The adipose tissue was cut and incubated with isoproterenol (10 μM) for 2 h, and homogenized in a cold cleavage buffer to prepare the adipose tissue homogenate. Then the homogenate was centrifuged at 12,000 × g at 4 °C for 15 min, and the supernatant was collected. […] Then the cells were lysed in a petri dish, scraped off, and centrifuged at 12,000 × g at 4 °C for 15 min before the supernatant was collected. […] And concentrations were further standardized according to protein concentration. The adipose tissue or 3T3-L1 adipocytes were homogenized by ultrasound in an ice-cold RIPA lysis buffer containing 1% PMSF and centrifuged at 12,000 × g at 4°C for 15 min to collect the supernatant. The BCA protein assay kit (Beyotime, Shanghai, China) was used to detect the total protein concentration. Proteins (20-30 μg) of the sample were separated by 10% SDS-PAGE gel and transferred onto polyvinylidene difluoride (PVDF) membranes. Then the PVDF membranes were blocked in 5% skim milk powder in TBS containing 1% Tween-20 (TBST) for 2 h at room temperature and washed with TBST for 3 times. […] After washing, the membranes were incubated with horseradish peroxidase-conjugated secondary antibodies (in 5% skim milk powder) for 1 h at room temperature. Finally, the membranes were treated with enhanced chemiluminescence agents (Tanon, Shanghai, China) and the signals were monitored using the Tanon 5200 multi chemiluminescent imaging system (Tanon, Shanghai, China).

[2] = tested on: cAMP, glycerol release; experiment: cAMP levels and glycerol release in TNF-α induced 3T3-L1 adipocytes (isoproterenol)
Protocol: The epididymal adipose tissue was dissected, the fresh adipose tissue was weighed and rapidly rinsed with PBS. The adipose tissue was cut and incubated with isoproterenol (10 μM) for 2 h, and homogenized in a cold cleavage buffer to prepare the adipose tissue homogenate. Then the homogenate was centrifuged at 12,000 × g at 4 °C for 15 min, and the supernatant was collected. […] Then the cells were lysed in a petri dish, scraped off, and centrifuged at 12,000 × g at 4 °C for 15 min before the supernatant was collected. […] And concentrations were further standardized according to protein concentration.

[3] = molecular target: T1, IKKε; experiment: 3T3-L1 adipocytes transfected with IKKε plasmid (western blotting, cAMP, glycerol, ISO); design: endogenous in cells; host or cells: differentiated 3T3-L1 adipocytes; IKKε (western blotting, Figure 8h) / UCP1 (western blotting, Figure 8i) / UCP1 (western blotting, Figure 8j): scale not given here; cAMP levels (Figure 8k) / Glycerol release (Figure 8l): unit not given here
Protocol: as §1

UCP1 (western blotting, Figure 9J) ([1]; siIKKϵ +): 0.6893 and 0.7105 and 0.7747
UCP1 (western blotting, Figure 9J) ([1]; siIKKϵ -): 0.5841 and 0.5565 and 0.4767
Glycerol release (Figure 8l) ([3]; ISO): 108.886 and 102.136 and 112.261
UCP1 (western blotting, Figure 8j) ([3]; ISO): 0.8258 and 0.5499 and 0.929
cAMP levels (Figure 8k) ([3]; ISO): 0.2652 and 0.258 and 0.2726
Glycerol release (Figure 8l) ([3]; ISO+IKKε): 84.4172 and 90.3234 and 97.917
UCP1 (western blotting, Figure 8j) ([3]; ISO+IKKε): 0.3959 and 0.3641 and 0.3989
cAMP levels (Figure 8k) ([3]; ISO+IKKε): 0.1824 and 0.1892 and 0.1882
Compound: CC(C)NCC(O)c1ccc(O)c(O)c1 (stereo not shown) [ISO]
Glycerol (Figure 9l) ([1]; siIKKϵ +): 169.673 µmol/L and 171.907 µmol/L and 177.534 µmol/L
cAMP (Figure 9k) ([1]; siIKKϵ +): 0.3589 pmol/mg protein and 0.3755 pmol/mg protein and 0.3876 pmol/mg protein and 0.3693 pmol/mg protein and 0.3629 pmol/mg protein and 0.3678 pmol/mg protein
Glycerol (Figure 9l) ([1]; siIKKϵ -): 104.409 µmol/L and 108.54 µmol/L and 120.987 µmol/L
cAMP (Figure 9k) ([1]; siIKKϵ -): 0.2714 pmol/mg protein and 0.2836 pmol/mg protein and 0.2536 pmol/mg protein and 0.2485 pmol/mg protein and 0.2952 pmol/mg protein
Glycerol release in differentiated 3T3-L1 adipocytes induced by TNF-α ([2]; ISO): 113.104 µmol/L and 118.167 µmol/L and 114.792 µmol/L
cAMP levels in differentiated 3T3-L1 adipocytes induced by TNF-α ([2]; ISO): 0.361 pmol/mg protein and 0.3597 pmol/mg protein and 0.3681 pmol/mg protein
Glycerol release in differentiated 3T3-L1 adipocytes induced by TNF-α ([2]; ISO+TNF-α(50ng/ml)): 103.823 µmol/L and 102.136 µmol/L and 105.511 µmol/L
cAMP levels in differentiated 3T3-L1 adipocytes induced by TNF-α ([2]; ISO+TNF-α(50ng/ml)): 0.2016 pmol/mg protein and 0.1968 pmol/mg protein and 0.1945 pmol/mg protein

Reference: article PMC9374667 (Communications Biology, 2022)
